Results published in US8901177B2, “Method of treating bladder disorders” (Targacept, Inc., priority 2012, dated 2014).
“Also recorded” adds a separate entry of the source.

How the values were obtained:
[1] = system: bladder function in conscious Sprague Dawley rats; assay: Oral administration (gavage) in awake, conscious rats, cystometry; details: 1 mg/kg oral gavage; for bladder contraction amplitude: compared to baseline/control; for change in spontaneous activity (SA), a surrogate for urge: compared to control; for change in bladder capacity / change in micturition interval / ICI / change in micturition volume: relative to baseline/control
Method: A further study was conducted to evaluate the effects of TC-5214 on bladder function in awake, conscious Sprague Dawley rats.
Nine female Sprague Dawley rats received intravesical saline at a rate of 10 mL/hr. Following a 60-minute baseline evaluation, rats were administered dexmecamylamine at a dose of 1 mg/kg by oral gavage, a dose previously determined to be the “No Effect Dose” in safety pharmacology studies. Two hours following the oral administration of dexmecamylamine, cystometric parameters were collected over a period of one hour.

[2] = Clinical trial for treatment of depression: rates of urinary tract infection and urinary retention; type: in vivo, human; details: oral tablets 0.1, 0.5, 2 or 4 mg BID
Method: FIG. 24 is a table showing rates of urinary tract infection (UTI) and urinary retention in human patients administered dexmecamylamine in a yet unpublished clinical trial for treatment of depression. Patients received orally administered dexmecamylamine tablets of 0.1 mg, 0.5 mg, 2 mg or 4 mg BID (twice daily). At the end of the trial period, the patients were evaluated and the rates of side effects, including urinary tract infection (UTI) and urinary retention, were recorded.

[3] = Mouse carcinogenicity studies; type: in vivo; details: much higher doses and concentrations than in the clinical program
From the text: Further, the Summary Basis of Approval for Detrol® indicates similar (lower rates) of bladder dilatation, as is noted in dexmecamylamine's carcinogenicity studies. Urinary retention, and concomitant urinary tract infection, is not anticipated to be a therapy-limiting side effect for relatively low doses and concentrations of dexmecamylamine (FIG. 24).

human α3β4 channels = target: T1, human α3β4 channels (Homo sapiens, UniProt P30926+P32297); assay: Use-dependent inhibition of human α3β4 channels expressed in CHO cells (Dynaflow electrophysiology); type: cell-based
T1 construct: host or cells: CHO cells
T1 sequence (P32297 32-505): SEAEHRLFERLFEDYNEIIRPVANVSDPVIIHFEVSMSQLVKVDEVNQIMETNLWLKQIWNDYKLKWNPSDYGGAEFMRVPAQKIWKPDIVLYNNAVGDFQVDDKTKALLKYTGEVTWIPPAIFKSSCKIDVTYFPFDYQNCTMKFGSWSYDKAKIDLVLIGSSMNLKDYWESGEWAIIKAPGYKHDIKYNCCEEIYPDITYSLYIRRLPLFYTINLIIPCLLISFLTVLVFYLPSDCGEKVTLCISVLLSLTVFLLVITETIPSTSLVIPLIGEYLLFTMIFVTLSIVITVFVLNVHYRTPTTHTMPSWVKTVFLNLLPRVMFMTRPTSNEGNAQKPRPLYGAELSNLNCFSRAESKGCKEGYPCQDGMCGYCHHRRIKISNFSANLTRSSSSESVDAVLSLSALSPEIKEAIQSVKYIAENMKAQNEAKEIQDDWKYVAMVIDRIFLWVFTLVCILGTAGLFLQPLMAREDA
T1 sequence (P30926 22-498): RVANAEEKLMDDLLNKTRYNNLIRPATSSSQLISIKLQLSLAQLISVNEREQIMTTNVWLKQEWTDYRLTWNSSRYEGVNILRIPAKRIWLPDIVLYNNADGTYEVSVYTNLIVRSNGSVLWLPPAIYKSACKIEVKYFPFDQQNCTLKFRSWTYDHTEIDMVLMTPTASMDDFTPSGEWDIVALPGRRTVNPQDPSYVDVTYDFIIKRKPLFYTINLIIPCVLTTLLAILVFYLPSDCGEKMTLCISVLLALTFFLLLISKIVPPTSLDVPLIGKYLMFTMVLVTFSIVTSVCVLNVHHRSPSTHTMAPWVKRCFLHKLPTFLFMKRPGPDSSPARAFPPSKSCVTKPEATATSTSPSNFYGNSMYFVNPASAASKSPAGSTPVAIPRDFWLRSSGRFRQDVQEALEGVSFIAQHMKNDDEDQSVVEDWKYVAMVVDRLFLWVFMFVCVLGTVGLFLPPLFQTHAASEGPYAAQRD
Method: There was an assumption that the dependence on the number of co-applications would be the most relevant to clinical concentrations, since upon the time of exposure in vivo, the number of open channels could reach substantial numbers; perhaps due to channel spontaneous opening, flickering, and endogenous transmitter release as a result of brain activity. All experiments were performed using a conventional Dynaflow (Cellectricon Inc.) electrophysiological system. Dynaflow settings: To achieve continuous exposure to the drug we used following Dynaflow chip loading. An example of standard chip loading for use-dependent experiments with example for 30 μM ACh and 0.1 μM of TC-05231 (racemic mecamylamine). For the following experiments, ACh always consisted of 30 μM and concentrations of compounds were, 0.03, 0.1, 0.3 and 1.0 (μM). FIG. 13 illustrates the settings.
Applications were performed by positioning the cell in front of channel #1 for 1 second, followed by channel #3, then back to channel #1 by rapidly moving the Dynaflow chip, which consisted of both the laminar flow from the channels and the entire bath solution. The additional channels between control and ACh-containing channel were used: (1) to provide the needed space for an additional washout to avoid contaminating the control channels with the agonist solution; and (2) to allow for the necessary amount of time for the Dynaflow stage to reach its optimum scanning speed.
3.1. Establishment of recording baseline: First, pipette with cells moved to channel #3. Then cells were exposed to ACh by moving cells to channel #1 for 1 second and back to channel #3. This movement of cells was repeated 10 times at 30 second intervals;
3.2. Collection data on use-dependent inhibition: After establishment of stable baseline, cells were moved to channel #6 and exposed to a test compound for 30 sec. Then cells were moved to channel #8 for 1 second and back to channel #6 for 30 seconds (total 10 times with intervals 30 seconds); and 3.3. To test reversibility of block (washout): repeat step 1. Note: with this chip setting, during repeated application of acetylcholine plus test compound, there was no interruption in application of compounds. For all calculations, peak current amplitude was normalized to the peak current amplitude evoked by the 10th application of acetylcholine. Experimental Results

[4] = type: in vivo, human
Method: More recently, dexmecamylamine was evaluated as adjunctive therapy in the treatment of major depressive disorder (MDD) in a large international Phase 3 depression program. […] More than 2400 subjects have received dexmecamylamine in double-blind or open-label studies.
No safety studies using dexmecamylamine have been performed in OAB. Phase 2 and Phase 3 clinical studies using dexmecamylamine in Major Depressive Disorder (MDD) have been conducted and completed. […] Briefly, in the fixed dose Phase 3 studies in MDD, at doses of 2 mg BID (the maximum doses to be studied in the OAB study), the most frequent treatment emergent adverse events that were reported more than 2% more commonly in the dexmecamylamine group compared to placebo group were: constipation (15.2% dexmecamylamine vs. 3.8% placebo); and dry mouth (7.0% dexmecamylamine vs. 1.3% placebo).

[5] = target: T2, α6-containing nicotinic receptors (Homo sapiens, UniProt Q15825); assay: α6-containing nicotinic receptors expressed in oocytes, stimulated with acetylcholine; type: cell-based; details: acetylcholine alone or with increasing concentrations
T2 construct: expressed in transfected cells; host or cells: oocytes
T2 sequence (Q15825 26-494): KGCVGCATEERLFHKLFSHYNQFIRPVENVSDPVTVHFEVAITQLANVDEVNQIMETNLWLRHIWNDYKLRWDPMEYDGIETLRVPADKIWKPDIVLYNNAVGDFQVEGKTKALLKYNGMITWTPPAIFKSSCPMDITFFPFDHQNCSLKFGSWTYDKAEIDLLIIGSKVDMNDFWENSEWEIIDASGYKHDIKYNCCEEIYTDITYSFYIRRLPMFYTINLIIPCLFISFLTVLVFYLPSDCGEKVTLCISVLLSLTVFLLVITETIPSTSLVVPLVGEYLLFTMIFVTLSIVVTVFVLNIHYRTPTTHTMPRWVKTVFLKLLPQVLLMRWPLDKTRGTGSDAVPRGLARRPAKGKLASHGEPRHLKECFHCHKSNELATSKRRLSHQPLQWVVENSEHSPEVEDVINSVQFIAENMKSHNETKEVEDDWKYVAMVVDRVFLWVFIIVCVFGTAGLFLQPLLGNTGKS

[6] = Urinary excretion and bladder/urine concentration after oral dosing, clinical program for depression; type: in vivo, human; details: for excretion unchanged in the urine: human, in vivo
Method: One aspect of the present invention is the use of dexmecamylamine as an oral agent for intravesical drug delivery. Oral doses (up to 4 mg BID) of dexmecamylamine evaluated during clinical studies for depression produced concentrations in the bladder in excess of 10 μM. […] Nicotinic receptors, including α3, α7, and β4, are expressed in the bladder urothelium itself. Agents that block nicotinic receptors in the bladder, such as hexamethonium, decrease bladder contractions and may block sensation of urgency. Inhibition of the α3 receptor diminishes bladder contraction frequency and afferent signaling to the brain (via P2X), thereby blocking or reducing the sensation of urgency. […] (Xu et al., Megacystis, mydriasis, and ion channel defect in mice lacking the α3 neuronal nicotinic acetylcholine receptor, Proc. Natl. Acad. Sci., Vol. 96, pp. 5746-5751, May 1999.)
During the dexmecamylamine clinical program for depression, including the initial phase 1 study (conducted by Targacept), ≧90% of orally administered dexmecamylamine was excreted unchanged in the […].

CNC1(C)[C@H]2CCC(C2)C1(C)C (stereo partly drawn) [TC-5214, (S)—N,2,3,3-tetramethylnorbornan-2-amine]
bladder contraction amplitude [1]: placebo-like
bladder contraction amplitude ([1]; listed as dexmecamylamine): without producing detrimental changes; also recorded: insignificant effect
change in spontaneous activity (SA), a surrogate for urge [1]: statistically significant differential
change in spontaneous activity (SA), a surrogate for urge ([1]; listed as dexmecamylamine): significant decrease
bladder compliance ([1]; relative to baseline): without producing detrimental changes
micturition pressure ([1]; relative to baseline): without producing detrimental changes
change in bladder capacity [1]: statistically significant increase
change in micturition interval / ICI [1]: statistically significant increase
change in micturition volume [1]: statistically significant increase
change in bladder capacity ([1]; listed as dexmecamylamine): statistically significant (Student paired-t test) increases
change in micturition interval / ICI ([1]; listed as dexmecamylamine): statistically significant (Student paired-t test) increases
change in micturition volume ([1]; listed as dexmecamylamine): statistically significant (Student paired-t test) increases
micturition interval ([1]; Last 1H (from 2 h after dosing), baseline First 1H 6.44 ± 1.24, FIG. 25 gives minutes): 9.44 ± 1.87
RV (Bcap-MV) ([1]; Last 1H, baseline First 1H 0.06 ± 0.02): 0.09 ± 0.04
B compliance ([1]; Last 1H, baseline First 1H 0.11 ± 0.03): 0.13 ± 0.03
Bcap ([1]; Last 1H, baseline First 1H 1.04 ± 0.24): 1.58 ± 0.31
SA (IMP-BP) ([1]; Last 1H, baseline First 1H 6.55 ± 2.01): 6.99 ± 2.57
BP (baseline) ([1]; Last 1H, baseline First 1H 10.39 ± 1.96): 8.60 ± 1.10
IMP ([1]; Last 1H, baseline First 1H 16.94 ± 3.94): 15.6 ± 2.91
TP ([1]; Last 1H, baseline First 1H 23.27 ± 3.82): 23.3 ± 2.0
NOEL (30 days oral): 1 mg/kg/day
mortality and histopathologic changes (doses up to and including 50 mg/kg/day): did not produce any mortalities nor any histopathologic changes
side effects due to urinary retention [2]: without therapy-limiting side effects due to urinary retention
urinary retention [3]: urinary retention was noted
peak current normalized to 10th ACh application (positive modulation, FIG. 16) (human α3β4 channels; 30 nM compound + 30 μM ACh, first co-application, control = 100, SEM and n in next columns): 113.3
positive modulation of α3β4 function (human α3β4 channels; 30 nM, t-test p<0.05): weak positive modulation
inhibition of human α3β4 receptor (asymptotes to the curve, FIG. 14) (human α3β4 channels; 100 nM compound with acetylcholine): minor to no detectable inhibition
Inhibition by (%) (human α3β4 channels; 100 nM compound, after 10 co-applications of 30 uM Ach and compound): 10% ± 6%
activity at 0.03 µM (human α3β4 channels; CHO, 30 nM compound + 30 μM ACh, successive grid rows = co-applications 1 to 10, control = 100, read-out: peak current amplitude normalized to 10th ACh application, use-dependent inhibition box): 113%
activity at 0.1 µM (human α3β4 channels; CHO, 100 nM compound + 30 μM ACh, successive grid rows = co-applications 1 to 10 at 30 s intervals, control = 100, read-out: peak current amplitude normalized to 10th ACh application, use-dependent inhibition box): 100%
inhibition at 0.1 µM (human α3β4 channels; CHO, 100 nM compound, after 10 co-applications of 30 uM Ach and compound, read-out: Inhibition by (%)): 10.1%
recovery (%) (human α3β4 channels; after 100 nM compound, following 10 application of Ach (30 uM) alone): 96% ± 6%
recovery / persistence of inhibition after wash out (human α3β4 channels; after 30 and 100 nM compound, agonist alone): full recovery
efficacy in the treatment of depression ([4]; adjunctive therapy, Phase 3 program): failed to demonstrate efficacy
vital signs, blood or urine laboratory measurements, ECG conduction intervals, suicidality ([4]; human, in vivo): no noteworthy differences
sensitivity of α6-containing nicotinic receptors [5]: sensitive
expected mean concentrations (urine) in humans ([6]; 0.5 mg BID dosing): approximately 3 μM
mean urine concentrations ([6]; 1 mg BID): approximately 6 μM
excretion unchanged in the urine [6]: eliminated unchanged in the urine
excretion unchanged in the urine ([6]; listed as dexmecamylamine): excreted almost entirely unchanged in the urine
concentrations in the bladder ([6]; oral doses up to 4 mg BID): > 10 µM
orally administered dose excreted unchanged in the bladder ([6]; oral, clinical program for depression incl. initial phase 1 study): ≥ 90%
